Results taken from patent US9492471B2, “Methods of treating a disease or disorder associated with Bruton'S Tyrosine Kinase” (Celgene Avilomics Research, Inc., priority 2013, dated 2016).
Where two headings read alike, the source gives them in different places.

Experiments:
Test in all cases: HotSpot kinase profiling
Type in all cases: biochemical
ALK2/ACVR1 = biological target: T1, ALK2/ACVR1 (Homo sapiens, UniProt Q04771)
T1 construct: purchased Reaction Biology Corp
How it was run: (§1)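 Percent inhibition, averaged when run more than once and referenced to a DMSO negative control, came from a radioactive filter-binding readout on P81 paper. Reactions of kinase with freshly made substrate and cofactors ran for 2 h at room temperature.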

CHK2 = biological target: T2, CHK2 (Homo sapiens, UniProt O96017)
T2 construct: purchased Reaction Biology Corp
How it was run: as §1

CK2a = biological target: T3, CK2a (Homo sapiens, UniProt P68400)
T3 construct: purchased Reaction Biology Corp
How it was run: as §1

EPHA7 = biological target: T4, EPHA7 (Homo sapiens, UniProt Q15375)
T4 construct: purchased Reaction Biology Corp
How it was run: as §1

ERK1 = biological target: T5, ERK1 (Homo sapiens, UniProt P27361)
T5 construct: purchased Reaction Biology Corp
How it was run: as §1

LYN B = biological target: T6, LYN B (Homo sapiens, UniProt P07948)
T6 construct: purchased Reaction Biology Corp
How it was run: as §1

NEK1 = biological target: T7, NEK1 (Homo sapiens, UniProt Q96PY6)
T7 construct: purchased Reaction Biology Corp
T7 sequence (Q96PY6 1-1258): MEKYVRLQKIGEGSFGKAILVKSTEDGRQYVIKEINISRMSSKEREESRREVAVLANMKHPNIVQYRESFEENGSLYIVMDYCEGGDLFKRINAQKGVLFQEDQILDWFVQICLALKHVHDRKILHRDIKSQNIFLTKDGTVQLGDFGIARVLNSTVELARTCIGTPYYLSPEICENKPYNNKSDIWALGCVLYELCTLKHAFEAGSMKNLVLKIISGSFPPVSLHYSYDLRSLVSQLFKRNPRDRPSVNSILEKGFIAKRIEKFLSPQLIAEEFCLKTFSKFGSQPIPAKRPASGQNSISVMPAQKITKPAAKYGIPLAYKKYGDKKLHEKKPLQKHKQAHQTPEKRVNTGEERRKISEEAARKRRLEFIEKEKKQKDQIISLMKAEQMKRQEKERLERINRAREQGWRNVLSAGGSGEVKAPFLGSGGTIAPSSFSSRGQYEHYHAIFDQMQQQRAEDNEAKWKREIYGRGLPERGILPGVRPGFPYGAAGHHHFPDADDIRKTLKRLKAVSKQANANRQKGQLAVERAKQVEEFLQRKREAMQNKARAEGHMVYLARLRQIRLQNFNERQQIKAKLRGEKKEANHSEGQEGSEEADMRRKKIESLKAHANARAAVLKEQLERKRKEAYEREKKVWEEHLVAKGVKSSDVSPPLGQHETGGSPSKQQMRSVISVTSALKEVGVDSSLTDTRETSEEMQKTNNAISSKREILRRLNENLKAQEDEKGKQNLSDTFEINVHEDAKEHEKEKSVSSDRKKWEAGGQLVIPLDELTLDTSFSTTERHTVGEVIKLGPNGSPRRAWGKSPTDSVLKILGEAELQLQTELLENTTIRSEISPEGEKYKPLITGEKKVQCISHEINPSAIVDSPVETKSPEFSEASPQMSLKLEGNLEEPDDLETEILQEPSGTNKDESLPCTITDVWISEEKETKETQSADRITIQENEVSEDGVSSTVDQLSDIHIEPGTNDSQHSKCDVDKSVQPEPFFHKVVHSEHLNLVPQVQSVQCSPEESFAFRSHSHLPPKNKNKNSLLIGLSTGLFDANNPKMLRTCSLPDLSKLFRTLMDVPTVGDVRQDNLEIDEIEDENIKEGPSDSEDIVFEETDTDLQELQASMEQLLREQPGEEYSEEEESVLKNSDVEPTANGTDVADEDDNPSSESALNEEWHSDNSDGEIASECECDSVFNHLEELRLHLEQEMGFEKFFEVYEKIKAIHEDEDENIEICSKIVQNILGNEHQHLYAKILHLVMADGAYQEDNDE
How it was run: as §1

P38d/MAPK13 = biological target: T8, P38d/MAPK13 (Homo sapiens, UniProt O15264)
T8 construct: purchased Reaction Biology Corp
T8 sequence (O15264 1-365): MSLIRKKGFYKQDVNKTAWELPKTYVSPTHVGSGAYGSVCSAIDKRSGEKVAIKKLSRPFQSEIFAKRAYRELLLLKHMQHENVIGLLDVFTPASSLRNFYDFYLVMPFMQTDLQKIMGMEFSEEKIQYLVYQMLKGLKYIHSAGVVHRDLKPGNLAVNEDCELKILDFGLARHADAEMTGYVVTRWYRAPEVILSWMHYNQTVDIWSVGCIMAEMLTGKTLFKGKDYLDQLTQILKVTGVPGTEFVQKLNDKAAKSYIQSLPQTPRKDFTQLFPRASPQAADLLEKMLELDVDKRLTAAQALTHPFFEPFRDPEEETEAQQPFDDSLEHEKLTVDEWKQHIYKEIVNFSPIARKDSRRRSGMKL
How it was run: as §1

PAK1 = biological target: T9, PAK1 (Homo sapiens, UniProt Q13153)
T9 construct: purchased Reaction Biology Corp
How it was run: as §1

SSTK/TSSK6 = biological target: T10, SSTK/TSSK6 (Homo sapiens, UniProt Q9BXA6)
T10 construct: purchased Reaction Biology Corp
How it was run: as §1

[1] = read-out: % Enzyme Activity (relative to DMSO controls) Run 1
[2] = read-out: % Enzyme Activity (relative to DMSO controls) Run 2

T3 sequence (P68400 whole entry): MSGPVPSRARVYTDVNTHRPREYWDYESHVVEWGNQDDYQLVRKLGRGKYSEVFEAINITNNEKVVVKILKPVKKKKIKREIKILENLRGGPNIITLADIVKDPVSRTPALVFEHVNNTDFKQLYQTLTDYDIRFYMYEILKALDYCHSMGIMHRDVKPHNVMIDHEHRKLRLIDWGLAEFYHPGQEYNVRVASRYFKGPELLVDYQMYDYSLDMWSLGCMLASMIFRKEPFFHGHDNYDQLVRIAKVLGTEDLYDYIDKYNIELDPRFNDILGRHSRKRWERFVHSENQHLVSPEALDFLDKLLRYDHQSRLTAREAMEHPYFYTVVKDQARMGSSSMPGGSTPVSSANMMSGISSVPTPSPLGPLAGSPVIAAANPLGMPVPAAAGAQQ
T10 sequence (Q9BXA6 whole entry): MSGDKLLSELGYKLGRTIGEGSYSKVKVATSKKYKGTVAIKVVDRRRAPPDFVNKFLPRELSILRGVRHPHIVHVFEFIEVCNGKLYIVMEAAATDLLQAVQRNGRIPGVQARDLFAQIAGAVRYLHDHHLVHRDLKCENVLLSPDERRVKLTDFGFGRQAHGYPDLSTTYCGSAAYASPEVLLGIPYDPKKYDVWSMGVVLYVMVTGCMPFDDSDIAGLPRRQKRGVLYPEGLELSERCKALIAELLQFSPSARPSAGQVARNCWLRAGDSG
T9 sequence (Q13153 whole entry): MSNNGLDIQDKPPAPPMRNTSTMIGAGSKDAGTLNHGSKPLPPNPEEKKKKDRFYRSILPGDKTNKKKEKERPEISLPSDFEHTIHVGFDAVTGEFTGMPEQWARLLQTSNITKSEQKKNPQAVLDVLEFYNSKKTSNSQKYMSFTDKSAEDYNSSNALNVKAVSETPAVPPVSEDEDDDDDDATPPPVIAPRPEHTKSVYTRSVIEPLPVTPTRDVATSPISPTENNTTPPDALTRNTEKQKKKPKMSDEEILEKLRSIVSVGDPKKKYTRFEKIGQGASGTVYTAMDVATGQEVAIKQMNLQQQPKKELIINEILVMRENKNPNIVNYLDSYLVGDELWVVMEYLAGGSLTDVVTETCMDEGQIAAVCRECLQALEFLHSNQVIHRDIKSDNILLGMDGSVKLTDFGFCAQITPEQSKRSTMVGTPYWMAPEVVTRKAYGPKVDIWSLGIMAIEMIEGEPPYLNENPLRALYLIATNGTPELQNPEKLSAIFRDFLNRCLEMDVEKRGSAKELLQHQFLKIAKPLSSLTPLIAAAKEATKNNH
T6 sequence (P07948 1-491 isoform P07948-2): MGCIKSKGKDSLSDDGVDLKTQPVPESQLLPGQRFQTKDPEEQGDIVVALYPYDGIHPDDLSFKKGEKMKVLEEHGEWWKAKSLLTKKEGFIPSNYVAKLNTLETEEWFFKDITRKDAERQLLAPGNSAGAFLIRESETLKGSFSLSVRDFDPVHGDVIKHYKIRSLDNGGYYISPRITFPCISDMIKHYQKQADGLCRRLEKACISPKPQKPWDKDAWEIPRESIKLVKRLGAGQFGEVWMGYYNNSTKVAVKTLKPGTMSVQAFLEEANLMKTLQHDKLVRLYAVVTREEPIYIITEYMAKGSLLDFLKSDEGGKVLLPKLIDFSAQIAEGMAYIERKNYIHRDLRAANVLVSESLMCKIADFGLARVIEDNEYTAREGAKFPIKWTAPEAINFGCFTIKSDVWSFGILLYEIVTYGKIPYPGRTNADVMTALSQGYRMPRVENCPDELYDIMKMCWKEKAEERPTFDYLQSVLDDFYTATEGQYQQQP
T5 sequence (P27361 whole entry): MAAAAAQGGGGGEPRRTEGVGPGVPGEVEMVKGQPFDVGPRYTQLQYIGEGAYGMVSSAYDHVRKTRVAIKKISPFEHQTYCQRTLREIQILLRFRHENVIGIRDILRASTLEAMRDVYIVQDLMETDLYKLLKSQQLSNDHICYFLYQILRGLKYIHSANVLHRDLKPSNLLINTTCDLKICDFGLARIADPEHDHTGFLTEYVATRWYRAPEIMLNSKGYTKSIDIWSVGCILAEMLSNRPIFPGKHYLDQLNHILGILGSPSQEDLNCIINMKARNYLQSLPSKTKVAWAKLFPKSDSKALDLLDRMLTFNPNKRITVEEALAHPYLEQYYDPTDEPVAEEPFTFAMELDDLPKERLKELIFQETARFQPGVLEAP
T4 sequence (Q15375 28-998): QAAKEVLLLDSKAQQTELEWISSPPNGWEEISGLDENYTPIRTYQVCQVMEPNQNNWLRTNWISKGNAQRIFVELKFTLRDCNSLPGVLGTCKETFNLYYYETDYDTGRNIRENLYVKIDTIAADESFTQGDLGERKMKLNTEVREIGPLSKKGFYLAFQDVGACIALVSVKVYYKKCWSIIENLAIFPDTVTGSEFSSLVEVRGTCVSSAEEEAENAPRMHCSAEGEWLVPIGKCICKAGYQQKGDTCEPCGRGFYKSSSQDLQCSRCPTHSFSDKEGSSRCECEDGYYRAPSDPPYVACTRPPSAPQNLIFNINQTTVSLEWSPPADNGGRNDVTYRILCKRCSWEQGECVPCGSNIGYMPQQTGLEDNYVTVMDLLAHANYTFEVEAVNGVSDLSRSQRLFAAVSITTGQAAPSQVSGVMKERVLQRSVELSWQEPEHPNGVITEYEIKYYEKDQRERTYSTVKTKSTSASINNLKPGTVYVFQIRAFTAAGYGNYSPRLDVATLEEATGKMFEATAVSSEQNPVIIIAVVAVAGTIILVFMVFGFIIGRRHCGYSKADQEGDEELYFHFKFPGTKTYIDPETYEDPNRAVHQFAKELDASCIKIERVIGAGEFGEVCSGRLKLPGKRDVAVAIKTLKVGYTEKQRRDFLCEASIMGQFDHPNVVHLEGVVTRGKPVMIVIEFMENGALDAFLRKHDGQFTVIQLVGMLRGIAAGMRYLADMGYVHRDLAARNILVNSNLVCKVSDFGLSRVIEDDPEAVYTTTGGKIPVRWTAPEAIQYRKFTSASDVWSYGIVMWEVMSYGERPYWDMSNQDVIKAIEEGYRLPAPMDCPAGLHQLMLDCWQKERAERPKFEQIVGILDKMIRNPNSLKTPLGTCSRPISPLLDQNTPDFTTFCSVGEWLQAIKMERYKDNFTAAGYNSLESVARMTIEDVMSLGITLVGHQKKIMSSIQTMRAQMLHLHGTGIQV
T2 sequence (O96017 whole entry): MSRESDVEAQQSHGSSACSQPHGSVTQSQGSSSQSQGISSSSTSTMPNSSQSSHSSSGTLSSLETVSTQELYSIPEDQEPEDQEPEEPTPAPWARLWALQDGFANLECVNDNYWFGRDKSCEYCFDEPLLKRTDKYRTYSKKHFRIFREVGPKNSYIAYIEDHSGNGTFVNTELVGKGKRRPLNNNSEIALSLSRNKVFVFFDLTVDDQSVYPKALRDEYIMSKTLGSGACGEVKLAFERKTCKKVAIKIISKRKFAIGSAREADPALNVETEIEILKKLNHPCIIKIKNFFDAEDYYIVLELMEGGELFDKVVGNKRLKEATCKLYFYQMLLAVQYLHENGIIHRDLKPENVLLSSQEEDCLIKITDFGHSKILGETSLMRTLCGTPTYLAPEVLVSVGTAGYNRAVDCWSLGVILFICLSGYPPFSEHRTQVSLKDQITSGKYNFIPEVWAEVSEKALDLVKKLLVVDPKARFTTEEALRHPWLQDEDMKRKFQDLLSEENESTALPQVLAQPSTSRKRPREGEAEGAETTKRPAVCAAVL
T1 sequence (Q04771 21-509): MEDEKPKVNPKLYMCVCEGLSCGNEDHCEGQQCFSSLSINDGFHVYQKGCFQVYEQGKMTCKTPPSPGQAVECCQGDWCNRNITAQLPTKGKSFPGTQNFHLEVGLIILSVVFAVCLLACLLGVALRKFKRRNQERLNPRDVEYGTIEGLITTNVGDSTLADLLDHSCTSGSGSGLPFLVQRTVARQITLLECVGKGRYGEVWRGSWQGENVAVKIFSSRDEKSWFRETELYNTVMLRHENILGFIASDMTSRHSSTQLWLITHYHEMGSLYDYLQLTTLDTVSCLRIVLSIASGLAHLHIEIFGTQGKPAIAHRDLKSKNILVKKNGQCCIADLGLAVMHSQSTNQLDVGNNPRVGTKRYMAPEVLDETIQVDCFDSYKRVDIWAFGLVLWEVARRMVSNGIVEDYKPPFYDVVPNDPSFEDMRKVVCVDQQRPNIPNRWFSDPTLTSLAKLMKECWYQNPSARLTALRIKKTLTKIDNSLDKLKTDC

C=CC(=O)Nc1cccc(Nc2nc(Nc3ccc(OCCOC)c(F)c3)ncc2F)c1 [Compound 2]
remaining activity at 3 µM (ALK2/ACVR1; [1]): 385% | remaining activity at 3 µM (ALK2/ACVR1; [2]): 385% | inhibition at 3 µM (CHK2): 74.4% | remaining activity at 3 µM (CHK2; [1]): 25.9% | remaining activity at 3 µM (CHK2; [2]): 25.3% | inhibition at 3 µM (CK2a): -20.1% | remaining activity at 3 µM (CK2a; [1]): 117% | remaining activity at 3 µM (CK2a; [2]): 123% | inhibition at 3 µM (EPHA7): 37.9% | remaining activity at 3 µM (EPHA7; [1]): 60% | remaining activity at 3 µM (EPHA7; [2]): 64.1% | inhibition at 3 µM (ERK1): 1.32% | remaining activity at 3 µM (ERK1; [1]): 97.4% | remaining activity at 3 µM (ERK1; [2]): 99.9% | inhibition at 3 µM (LYN B): 5.7% | remaining activity at 3 µM (LYN B; [1]): 92.9% | remaining activity at 3 µM (LYN B; [2]): 95.7% | inhibition at 3 µM (NEK1): 46.6% | remaining activity at 3 µM (NEK1; [1]): 52.7% | remaining activity at 3 µM (NEK1; [2]): 54% | inhibition at 3 µM (P38d/MAPK13): 0.64% | remaining activity at 3 µM (P38d/MAPK13; [1]): 98.9% | remaining activity at 3 µM (P38d/MAPK13; [2]): 99.8% | inhibition at 3 µM (PAK1): 2.58% | remaining activity at 3 µM (PAK1; [1]): 96.3% | remaining activity at 3 µM (PAK1; [2]): 98.6% | inhibition at 3 µM (SSTK/TSSK6): -3.6% | remaining activity at 3 µM (SSTK/TSSK6; [1]): 107% | remaining activity at 3 µM (SSTK/TSSK6; [2]): 99.8%
